Data published in patent US20030087887A1, “Novel fusidic acid derivatives” (priority 2001, published 2003).
In brackets after ≈: the same amount, converted by molar mass.

How the values were obtained:
Format in all cases: cell-based
S. aureus CJ247 = experiment: MIC, agar diffusion, S. aureus CJ247; details: Staphylococcus aureus, read-out: in vitro activities MIC
Source text: (§1) In vitro investigations have shown a relatively high potency of compounds of the invention against all bacteria including gram-positive and gram-negative strains (Staphylococci, Streptococci, Corynebacteriae, Mycobacteriae, Proteus, Propionibacterium, Pseudomonas, Neisseriae, E. coli) and fungal strains (Candida and Aspergillus). […] In addition, the studies of post-antibiotic effects point towards a strong bactericidal effect of the compounds of the invention. […] The potency of new polyaminated fusidic acid analogues is estimated by comparing the inhibition of growth of different microorganisms produced by known concentrations of the analogue to be examined and a reference compound such as fusidic acid. The microbiological assay set up is in agreement with the European Pharmacopoeia 3rd edition (1997). It is an agar diffusion method where the same volume of the tested solution is added to cavities in agar. The inhibition zones are function of the concentration of the fusidic acid analogue used. All assays are run with fusidic acid as reference substance.

S. aureus CJ200 = experiment: MIC, agar diffusion, S. aureus CJ200; details: Staphylococcus aureus, read-out: in vitro activities MIC
Source text: as §1

S. aureus CJ234R = experiment: MIC, agar diffusion, S. aureus CJ234R; details: Staphylococcus aureus; S. aureus CJ234R (MRSA, Rifampicin resistant); read-out: in vitro activities MIC
Source text: as §1

S. aureus CJ234F = experiment: MIC, agar diffusion, S. aureus CJ234F; details: Staphylococcus aureus; S. aureus CJ234F (MRSA, Fus. resistant); read-out: in vitro activities MIC
Source text: as §1

S. epidermis CK5 = experiment: MIC, agar diffusion, S. epidermis CK5; details: Staphylococcus epidermidis, read-out: in vitro activities MIC
Source text: as §1

[1] = test system: Streptococcus pyogenes EC88; experiment: MIC, agar diffusion, Streptococcus pyogenes EC88; details: read-out: in vitro activities MIC
Source text: as §1

S. aureus N6 = experiment: MIC, agar diffusion, S. aureus N6; details: Staphylococcus aureus; S. aureus N6 (Fus. resistant); read-out: in vitro activities MIC
Source text: as §1

[2] = test system: Corynebacterium xerosis FF; experiment: MIC, agar diffusion, Corynebacterium xerosis FF; details: read-out: in vitro activities MIC
Source text: as §1

E. coli HA165 = experiment: MIC, agar diffusion, E. coli HA165; details: Escherichia coli, read-out: in vitro activities MIC
Source text: as §1

[3] = test system: Pseudomonas aeruginosa BA17; experiment: MIC, agar diffusion, Pseudomonas aeruginosa BA17; details: read-out: in vitro activities MIC
Source text: as §1

[4] = test system: Saccaromyces cervisiae ZZ7; experiment: MIC, agar diffusion, Saccaromyces cervisiae ZZ7; details: Saccharomyces cerevisiae, read-out: in vitro activities MIC
Source text: as §1

Candida albicans ZA = experiment: MIC, agar diffusion, Candida albicans ZA; details: read-out: in vitro activities MIC
Source text: as §1

Asbergillus niger ZM35 = experiment: MIC, agar diffusion, Asbergillus niger ZM35; details: Aspergillus niger, read-out: in vitro activities MIC
Source text: as §1

[5] = test system: Propionibacterium acnes FN33; experiment: MIC, agar diffusion, Propionibacterium acnes FN33; details: Cutibacterium acnes, read-out: in vitro activities MIC
Source text: as §1

[6] = test system: Streptococcus faecium EI19; experiment: MIC, agar diffusion, Streptococcus faecium EI19; details: Enterococcus faecium; Streptococcus faecium EI19 (Penicillin resistant); read-out: in vitro activities MIC
Source text: as §1

SMILES | MIC (S. aureus CJ247) [µg/mL] | MIC (S. aureus CJ200) [µg/mL] | MIC (S. aureus CJ234R) [µg/mL] | MIC (S. aureus CJ234F) [µg/mL] | MIC (S. epidermis CK5) [µg/mL] | MIC [1] [µg/mL] | MIC (S. aureus N6) [µg/mL] | MIC [2] [µg/mL] | MIC (E. coli HA165) [µg/mL] | MIC [3] [µg/mL] | MIC [4] [µg/mL] | MIC (Candida albicans ZA) [µg/mL] | MIC (Asbergillus niger ZM35) [µg/mL] | MIC [5] [µg/mL] | MIC [6] [µg/mL]
C/C(=C\C(=O)OCCCCCCCCC(=O)O)C[C@@H]1OC[C@H](C[C@@H]2O[C@H]2[C@@H](C)[C@H](C)O)[C@@H](O)[C@H]1O [Mupirocin, reference compound] | 0.5 (≈ 0.999 µM) | 1 (≈ 2 µM) | 1 (≈ 2 µM) | 0.5 (≈ 0.999 µM) | 0.04 (≈ 0.0799 µM) | 1 (≈ 2 µM) |  |  |  |  |  |  |  |  | 
CC(C)CCCC(C(=O)NCCNCCCNCCN)[C@H]1CC[C@@]2(C)C1CCC1[C@@]3(C)CC[C@@H](O)[C@@H](C)C3CC[C@@]12C (some centres unmarked) [Compound 152, 21-N-[2′-({3′-[(2′-aminoethyl)amino]propyl}amino)ethyl]-11-desoxy-16-desacetoxy-17S,20,24,25-tetrahydrofusid-21-amide] | 4 (≈ 6.79 µM) | 4 (≈ 6.79 µM) |  | 4 (≈ 6.79 µM) | 2 (≈ 3.4 µM) |  | 4 (≈ 6.79 µM) | 1 (≈ 1.7 µM) | 4 (≈ 6.79 µM) | 8 (≈ 13.6 µM) | > 125 | > 125 | > 125 |  | 
CC(=O)O[C@H]1C[C@@]2(C)[C@@H](C[C@@H](O)[C@H]3[C@@]4(C)CC[C@@H](O)[C@@H](C)[C@@H]4CC[C@@]32C)/C1=C(\CCC=C(C)C)C(=O)O [FA, fusidic acid] | 0.02 (≈ 0.0387 µM) | 0.02 (≈ 0.0387 µM) | 0.02 (≈ 0.0387 µM) | 16 (≈ 31 µM) | 0.02 (≈ 0.0387 µM) | 16 (≈ 31 µM) | 16 (≈ 31 µM) | 0.1 (≈ 0.194 µM) | > 64 | > 64 | > 64 | > 64 | > 64 | 0.2 (≈ 0.387 µM) | 
CC(C)CCCC(C(=O)NCCCCNCCCN)[C@H]1CC[C@@]2(C)C1CCC1[C@@]3(C)CC[C@@H](O)[C@@H](C)C3CC[C@@]12C (some centres unmarked) [Compound 154, 21-N-{4′-[(3′-aminopropyl)amino]butyl}-11-desoxy-16-desacetoxy-17S,20,24,25-tetrahydrofusid-21-amide] | 4 (≈ 6.97 µM) | 4 (≈ 6.97 µM) |  | 4 (≈ 6.97 µM) | 1 (≈ 1.74 µM) |  | 4 (≈ 6.97 µM) | 0.5 (≈ 0.871 µM) | 8 (≈ 13.9 µM) | 16 (≈ 27.9 µM) | > 125 | > 125 | > 125 |  | 
CC(=O)O[C@H]1C[C@@]2(C)C(CCC3[C@@]4(C)CC[C@@H](OS(=O)(=O)O)[C@@H](C)C4CC[C@@]32C)[C@@H]1[C@H](CCCC(C)C)C(=O)NCCCNCCCCNCCCN (some centres unmarked) [Compound 177, 21-N-[3′-({4′-[(3′-aminopropyl)amino]butyl}amino)propyl]-3-OSO3-11-desoxy-17,20,24,25-tetrahydrofusid-21-amide] | 1 (≈ 1.3 µM) | 1 (≈ 1.3 µM) |  | 1 (≈ 1.3 µM) | 1 (≈ 1.3 µM) | 4 (≈ 5.2 µM) | 4 (≈ 5.2 µM) | 1 (≈ 1.3 µM) | 16 (≈ 20.8 µM) | 16 (≈ 20.8 µM) | 125 (≈ 163 µM) | 64 (≈ 83.2 µM) | 16 (≈ 20.8 µM) | 1 (≈ 1.3 µM) | 
CC(=O)O[C@H]1C[C@@]2(C)C(CCC3[C@@]4(C)CC[C@@H](O)[C@@H](C)C4CC[C@@]32C)[C@@H]1[C@H](CCCC(C)C)C(=O)NCCCNCCCN (some centres unmarked) [Compound 131] | 4 (≈ 6.47 µM) | 4 (≈ 6.47 µM) |  | 4 (≈ 6.47 µM) | 4 (≈ 6.47 µM) | 4 (≈ 6.47 µM) | 4 (≈ 6.47 µM) | 4 (≈ 6.47 µM) | 16 (≈ 25.9 µM) | 4 (≈ 6.47 µM) | 16 (≈ 25.9 µM) | 16 (≈ 25.9 µM) | 16 (≈ 25.9 µM) | 4 (≈ 6.47 µM) | 4 (≈ 6.47 µM)
CC(C)CCCC(C(=O)NCCCNCCCCNCCCN)[C@@H]1CC[C@@]2(C)C1C[C@@H](O)C1[C@@]3(C)CC[C@@H](O)[C@@H](C)C3CC[C@@]12C (stereo partly drawn) [Compound 146, 21-N-{[3′-({4′-[(3′-aminopropyl)amino]butyl}amino)propyl]}-16-desacetoxy-17R,20S,24,25-tetrahydrofusid-21-amide] | 1 (≈ 1.55 µM) | 1 (≈ 1.55 µM) |  | 1 (≈ 1.55 µM) | 1 (≈ 1.55 µM) | 1 (≈ 1.55 µM) | 1 (≈ 1.55 µM) | 1 (≈ 1.55 µM) | 4 (≈ 6.18 µM) | 16 (≈ 24.7 µM) | 4 (≈ 6.18 µM) | > 125 | > 125 | 1 (≈ 1.55 µM) | 1 (≈ 1.55 µM)
